One molecule from paper PMC3454376, “Salidroside Improves Behavioral and Histological Outcomes and Reduces Apoptosis via PI3K/Akt Signaling after Experimental Traumatic Brain Injury” (PLoS ONE, 2012) can be followed below.

In one experiment the test system is cleaved caspase-3. In words: Western blot, injured cortex. The experiment is classed as in vivo, mice. The settings on record: for decrease of cleaved caspase-3 level versus vehicle: 20 mg/kg ip 10 min after CCI, P<0.05. The method, then: Three sets of experiments were performed. The first set was to investigate the protective effects of salidroside. All animals were randomized into 1 of 3 groups (sham injury, CCI + vehicle, CCI + SALD 20). Surgery/injury, behavioral testing, and tissue analyses were performed by different individuals. Behavioral testing and tissue analyses were performed by individuals blinded to the treatment group. Salidroside (Cayman Chemical, Ann Arbor, MI, USA) dissolved in normal saline (0.25 mL) or a corresponding volume of vehicle (saline) was administered intraperitoneally 10 min following injury. Testing after injury was completed as follows: 1) behavioral testing at days 1, 4, 7, 14, 21, and 28 (n = 8–10 mice/group); 2) cresyl violet staining at day 28 (n = 9 mice/group); 3) histology, determination of brain water content, and western blot analysis at day 1 or 3 (n = 5–6 mice/group). To determine the optimal dose of salidroside, a pilot study was performed using 2 different doses (20 and 50 mg/kg) administered 10 min after injury, and neurological deficits and tissue damage were evaluated as the main outcomes. […] The second set of experiment was to assess the effect of the inhibition of PI3K/Akt with the specific PI3K inhibitor, LY294002 (Cell Signaling Technology, Danvers, MA, USA), on salidroside effects. Animals were randomized into 4 groups. Mice received either: 1) icv pretreatment of LY294002 followed by SALD 20 after CCI (S20Y group); or 2) icv pretreatment of saline (vehicle control) followed by SALD 20 after CCI (S20V group). 3) Mice were infused icv with saline and were subjected to sham injury. 4) Mice were infused icv with LY294002 and were subjected to sham injury. […] Protein concentration was determined by Bradford reagent spectrophotometrically at A595. […] The relative intensity of protein signals was normalized to the corresponding β-actin intensity and was quantified by densitometric analysis with the use of Image J software.
(Immunoblotting shows a protein as a band on a membrane.)

The test system of experiment [1] is mice subjected to controlled cortical impact injury. In words: Fluoro-Jade B staining of degenerating neurons. The experiment is classed as in vivo. The settings on record: day 1. The method, then: All animal procedures were approved by the Animal Research Committee at Cheng Hsin General Hospital (Animal permit number […] 101-08), and all procedures complied with the Guide for the Care and Use of Laboratory Animals published by the US National Institutes of Health (NIH Publication No. 85-23, revised 1996). Animals were housed under a 12-h light/dark cycle and at constant temperature (21-25°C) and humidity (45-50%). They were allowed free access to pellet chow and water. TBI in mice was induced by a CCI injury model as previously described. Briefly, 8-week-old male C57BL/6 mice (weighing 22-25 g) were anesthetized through the use of intraperitoneal injection of sodium pentobarbital (65 mg/kg; Rhone Merieux, Harlow, UK) and placed in a stereotaxic frame. A 5 mm craniotomy was performed over the right parietal cortex, centered on the coronal suture and 0.1 mm lateral to the sagittal suture, and injury to dura was avoided. Injury was induced using a pneumatic piston with a rounded metal tip (2.5 mm diameter) that was angled 22.5° to the vertical so that the tip was perpendicular with the brain surface at the center of the craniotomy. The impact, with a velocity of […] and a deformation depth of 2 mm below the dura, was applied. The bone flap was immediately replaced and sealed, and the scalp was sutured. Body temperature was monitored throughout the surgery by a rectal probe; temperature was maintained at 37.0±0.5°C using a heated pad. Mice were placed in a heated cage to maintain body temperature, while recovering from anesthesia. Sham-operated mice underwent the same procedure as injured mice, but without CCI. Three sets of experiments were performed. The first set was to investigate the protective effects of salidroside. All animals were randomized into 1 of 3 groups (sham injury, CCI + vehicle, CCI + SALD 20). Surgery/injury, behavioral testing, and tissue analyses were performed by different individuals. Behavioral testing and tissue analyses were performed by individuals blinded to the treatment group. Salidroside (Cayman Chemical, Ann Arbor, MI, USA) dissolved in normal saline (0.25 mL) or a corresponding volume of vehicle (saline) was administered intraperitoneally 10 min following injury. Testing after injury was completed as follows: 1) behavioral testing at days 1, 4, 7, 14, 21, and 28 (n = 8-10 mice/group); 2) cresyl violet staining at day 28 (n = 9 mice/group); 3) histology, determination of brain water content, and western blot analysis at day 1 or 3 (n = 5-6 mice/group). To determine the optimal dose of salidroside, a pilot study was performed using 2 different doses (20 and 50 mg/kg) administered 10 min after injury, and neurological deficits and tissue damage were evaluated as the main outcomes. […] The second set of experiment was to assess the effect of the inhibition of PI3K/Akt with the specific PI3K inhibitor, LY294002 (Cell Signaling Technology, Danvers, MA, USA), on salidroside effects. Animals were randomized into 4 groups. Mice received either: 1) icv pretreatment of LY294002 followed by SALD 20 after CCI (S20Y group); or 2) icv pretreatment of saline (vehicle control) followed by SALD 20 after CCI (S20V group). 3) Mice were infused icv with saline and were subjected to sham injury. 4) Mice were infused icv with LY294002 and were subjected to sham injury. Testing after injury was completed as follows: 1) cresyl violet staining at day 28 (n = 6 mice/group); 2) western blot analysis at day 1 (n = 6 mice/group). The third set of experiment was performed to examine the neuroprotective time window afforded by salidroside. Mice received intraperitoneal SALD 20 or vehicle (saline) at 3 or 6 h following CCI and were sacrificed 1 day later for FJB staining and western blot analysis (n = 6 mice/group). […]

The structures appear in SMILES notation.

For the molecule `OC[C@H]1O[C@@H](OCCc2ccc(O)cc2)[C@H](O)[C@@H](O)[C@@H]1O` [SALD, salidroside], the “decrease of cleaved caspase-3 level versus vehicle” value with cleaved caspase-3 (day 1) came to 49.6%; in the experiment on cleaved caspase-3 (day 3) it was 34.9%. For the same molecule, the “reduction of cleaved caspase-3 level” value in the experiment with cleaved caspase-3 (20 mg/kg ip 3 h after injury, day 1) is reported as 34.1%. The “FJB-positive neurons around the injured cortical area” value in experiment [1] (20 mg/kg ip 10 min after CCI, vehicle 87.9±5.9, P<0.01) turned out to be 55.1±6.9 cells/field; in experiment [1] (20 mg/kg ip 3 h after injury, vehicle 91.2±3.3, P<0.001), 71.2±2.7 cells/field; in experiment [1] (20 mg/kg ip 6 h after injury, vehicle 92.9±3.3, P<0.001) it was 71.7±1.6 cells/field. Also, the “reduction of the number of FJB-positive neurons” value in experiment [1] (20 mg/kg ip 10 min after injury) is on record as 37.3%. Besides, the “reduction of neuronal damage (FJB)” value was found to be 21.9% in experiment [1] (20 mg/kg ip 3 h after injury) and 22.8% in experiment [1] (20 mg/kg ip 6 h after injury).
